Source: US9591848B2, “Biofilm resistant polymer materials” (Abilene Christian Univ., priority 2008, dated 2017)
Entries after “also recorded” stand apart in the source; their conditions may differ.

Columns and labels:
[1] = system: E. coli; assay: Biofilm resistance of UV-cured coatings after E. coli growth and staining; type: cell-based; conditions: for biofilm resistance (lack of blue coloring): 15 and 20 weight % monomer in the coating; for biofilm formation: 15 and 20 weight percent monomer, increased E. coli broth concentration, approaching 10^9 cells/mL
Description: Materials and methods were the same as disclosed in the Examples 1 and 2, above, except that the polymers were not adhered to steel, but to 24-well, plastic (i.e., poly(styrene)) culture plates.
The coatings were applied to and UV-cured onto four uncoated 24-well plastic plates to a calculated thickness of two mils. The monomers of the compositions were phenyl acrylate (PA) as the non-biofilm resistant control monomer, 3-chlorophenyl acrylate (CPA), 2,4-dichlorophenyl acrylate (DCPA), 4-bromophenyl acrylate (BPA) and 2,4-dibromophenyl acrylate (DBPA).
The coatings were cured with the curing apparatus and sterilized with 95% ethanol. E. coli was grown in a LB agar broth and added to the cell plates with sterile, deionized water at four concentrations, one concentration per plate. The plates were incubated for twenty-four hours at 37° C. The E. coli was then rinsed from the plates with sterile, deionized water and sprayed with the cytology fixative [poly(ethylene glycol)-based]. After the fixative was air dried it was soaked with 95% ethanol for ten minutes for further sterilization. The plates were then rinsed with sterile, deionized water and four drops of Hema-diff solution were added for four seconds.

[2] = Roughness of cured coatings by atomic force microscopy (Sy, peak to valley distance); type: physicochemical; conditions: 5, 10, 15 and 20 weight percent monomer in the coating; FIGS. 1 and 2
Description: To determine the roughness of the cured formulations, polymers consisting of each of five monomers were tested using atomic force microscopy (AFM) scanning and applying the non-contact mode dragging of the cantilever. Each of the polymers consisting of the monomers: phenyl acrylate (PA), 3-chlorophenyl acrylate (CPA), 2,4-dichlorophenyl acrylate (DCPA), 4-bromophenyl acrylate (BPA) and 2,4-dibromophenyl acrylate (DBPA) were tested at 5, 10, 15 and 20 percent of the monomer by weight (the “Coating Level”).
Each scanning location was approximately an 80 μm×80 μm area (6400 μm^2). To eliminate the effects of interference on the roughness measurements, two scans were taken at each location in the X and Y direction. These two roughness calculations were averaged to yield the roughness calculation for each location. Three locations were selected for each plate and then the average roughness was calculated for all three locations in order to minimize statistical variance yielding an overall plate roughness average, Sa as determined via Equation 1.
[formula] […] The following equation was used to determine the average peak to valley distance, Sy value, (Equation 2) for each composition at each coating level. Sy=Speak−Svalley Equation 2 The Sy value is the value typically used in the industry to determine the propensity for biofilm resistance of a smooth surface.

SMILES | biofilm resistance (lack of blue coloring) ([1]; FIG. 4) | biofilm formation [1] | smoothness of the coating (Sy) [2] | bacterial growth on the coating (blue tinting) ([1]; coating containing the internal control monomer, 24 h at 37° C., FIG. 4) | biofilm inhibitory activity ([1]; monomer without halogens, used as internal standard or control)
C=CC(=O)Oc1ccc(Br)cc1Br [DBPA, 2,4-dibromophenyl acrylate] | excellent biofilm resistance | no evidence of biofilm formation | – | – | –
C=CC(=O)Oc1ccccc1 [PA, phenyl acrylate, reference compound] | – | – | did not enhance the smoothness | bacterial growth | no biofilm inhibitory activity; also recorded: biologically inactive
C=CC(=O)Oc1ccc(Cl)cc1Cl [DCPA, 2,4-dichlorophenyl acrylate] | excellent biofilm resistance | no evidence of biofilm formation | – | – | –
C=CC(=O)Oc1cccc(Cl)c1 [CPA, 3-chlorophenyl acrylate] | excellent biofilm resistance | no evidence of biofilm formation | – | – | –
